Assay results: patent US20220348592A1, “FUSED HETEROCYCLIC DERIVATIVES” (Janssen Sciences Ireland Unlimited Company, priority 2019, published 2022)

What was measured:
HBV = assay: Anti-HBV activity: intracellular HBV DNA by real-time PCR in HepG2.117 cell line; assay type: cell-based, Hepatitis B virus; conditions: Hepatitis B virus, 72 h; HepG2.117 cells, 3 days of treatment, intracellular HBV DNA by real-time PCR, mean value; read-out: HBV-AVE-HepG2.117 EC50 (μM, mean value)
Summary of the method: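 HepG2.117 cells, a Tet-off inducible HBV-producing line, induced to replicate HBV and then treated with serially diluted compound. After 3 days, intracellular HBV DNA quantified by real-time PCR with HBV-specific primers and probe.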

[1] = Cytotoxicity in HepG2.117 cells, ATPlite Luminescence Assay; assay type: cell-based, human; conditions: human, incubated for 3 days, mean value, read-out: TOX-HepG2.117 CC50 (μM, mean value)
Protocol: Cytotoxicity of the compounds was tested using HepG2 or HepG2.117 cells, incubated for 3 days in the presence of compounds. The viability of the cells was assessed using the PERKIN ELMER ATPlite Luminescence Assay System.”

O=C(c1ccc(Cl)c(F)c1)N1CCc2nn3c(c2C1)C(=O)N(Cc1ccccn1)CC3 [Example C78]
EC50 (HBV): 0.707 µM | CC50 at 3 days [1]: > 50 µM

Cc1cnc(C(C)N2CCn3nc4c(c3C2=O)CN(C(=O)c2ccc(Cl)c(Cl)c2)[C@H](C)C4)o1 (stereo partly drawn) [Example C221]
EC50 (HBV): 0.022 µM | CC50 at 3 days [1]: > 50 µM

C[C@@H]1Cc2nn3c(c2CN1C(=O)c1ccc(Cl)c(Cl)c1)C(=O)N(Cc1cscn1)CC3 [Compound 22, (3R)-2-(3,4-Dichlorobenzoyl)-3-methyl-9-[(1,3-thiazol-4-yl)methyl]-1,2,3,4,8,9-hexahydro-pyrido[4′,3′:3,4]pyrazolo[1,5-a]pyrazin-10(7H)-one]
EC50 (HBV): 0.129 µM | CC50 at 3 days [1]: > 50 µM

Cc1cncc(CN2CCn3nc4c(c3C2=O)CN(C(=O)c2ccc(Cl)c(Cl)c2)[C@H](C)C4)c1 [Example C139]
EC50 (HBV): 0.04 µM | CC50 at 3 days [1]: > 50 µM

Cc1cc(C#N)ccc1CN1CCn2nc3c(c2C1=O)CN(C(=O)c1ccc(Cl)c(Cl)c1)[C@H](C)C3 [Example C207]
EC50 (HBV): 0.053 µM | CC50 at 3 days [1]: 25.6 µM

C[C@@H]1Cc2nn3c(c2CN1C(=O)c1ccc(Cl)c(C(F)(F)F)c1)C(=O)N(Cc1ccccn1)CC3 [Example C112]
EC50 (HBV): 0.025 µM | CC50 at 3 days [1]: > 50 µM

CC(c1ccc(C#N)cc1)N1CCn2nc3c(c2C1=O)CN(C(=O)c1ccc(Cl)c(Cl)c1)[C@H](C)C3 (stereo partly drawn) [Example C88]
EC50 (HBV): 0.038 µM | CC50 at 3 days [1]: > 48 µM

C[C@@H]1Cc2nn3c(c2CN1C(=O)c1ccc(Cl)c(Cl)c1)C(=O)NCCC3 [Compound 38, (3R)-2-(3,4-Dichlorobenzoyl)-3-methyl-1,2,3,4,7,8,9,10-octahydro-11H-pyrido[4′,3′:3,4]-pyrazolo[1,5-a][1,4]diazepin-11-one]
EC50 (HBV): 1.75 µM | CC50 at 3 days [1]: > 50 µM

COc1ccc(CN2CCn3nc4c(c3C2=O)CN(C(=O)c2ccc(Cl)c(C#N)c2)CC4)cc1 [Example C64]
EC50 (HBV): 0.089 µM | CC50 at 3 days [1]: > 49 µM

Cc1ccc(CN2CCn3nc4c(c3C2=O)CN(C(=O)c2ccc(Cl)c(Cl)c2)[C@H](C)C4)c(C)n1 [Example C232]
EC50 (HBV): 0.066 µM | CC50 at 3 days [1]: 24.4 µM

C[C@@H]1Cc2nn3c(c2CN1C(=O)c1ccc(Cl)c(Cl)c1)C(=O)N([C@H](C)c1ccc(F)cc1)CC3 [Compound 25, (3R)-2-(3,4-Dichlorobenzoyl)-9-[(1R)-1-(4-fluorophenyl)ethyl]-3-methyl-1,2,3,4,8,9-hexahydropyrido[4′,3′:3,4]pyrazolo[1,5-a]pyrazin-10(7H)-one]
EC50 (HBV): 0.016 µM | CC50 at 3 days [1]: > 25 µM

CC(c1cccc(OC(F)(F)F)c1)N1CCn2nc3c(c2C1=O)CN(C(=O)c1ccc(Cl)c(Cl)c1)[C@H](C)C3 (stereo partly drawn) [Example C194]
EC50 (HBV): 0.075 µM | CC50 at 3 days [1]: 26.4 µM

CC(c1nnnn1C1CC1)N1CCn2nc3c(c2C1=O)CN(C(=O)c1ccc(Cl)c(Cl)c1)[C@H](C)C3 (stereo partly drawn) [Example C184]
EC50 (HBV): > 2.5 µM | CC50 at 3 days [1]: > 50 µM

C[C@@H]1Cc2nn3c(c2CN1C(=O)c1ccc(Cl)c(Cl)c1)C(=O)N(Cc1cn2ccc(C(F)(F)F)cc2n1)CC3 [Example C176]
EC50 (HBV): 0.274 µM | CC50 at 3 days [1]: 15 µM

C[C@@H]1Cc2nn3c(c2CN1C(=O)c1ccc(Cl)c(Cl)c1)C(=O)N(Cc1cc(F)ccc1F)CC3 [Example C228]
EC50 (HBV): 0.062 µM | CC50 at 3 days [1]: 37.5 µM

CCCn1c(C)nnc1CN1CCn2nc3c(c2C1=O)CN(C(=O)c1ccc(Cl)c(Cl)c1)[C@H](C)C3 [Example C134]
EC50 (HBV): > 2.5 µM | CC50 at 3 days [1]: > 50 µM

C[C@@H]1Cc2nn3c(c2CN1C(=O)c1ccc(Cl)c(Cl)c1)C(=O)N(Cc1ccc(C#N)cc1F)CC3 [Example C175]
EC50 (HBV): 0.038 µM | CC50 at 3 days [1]: 35.5 µM

Cc1cnc(C(C)N2CCn3nc4c(c3C2=O)CN(C(=O)c2ccc(Cl)c(Cl)c2)[C@H](C)C4)cn1 (stereo partly drawn) [Example C219]
EC50 (HBV): 0.068 µM | CC50 at 3 days [1]: > 50 µM

Cc1nocc1CN1CCn2nc3c(c2C1=O)CN(C(=O)c1ccc(Cl)c(Cl)c1)[C@H](C)C3 [Example C241]
EC50 (HBV): 0.19 µM | CC50 at 3 days [1]: > 50 µM

C[C@@H]1Cc2nn3c(c2CN1C(=O)c1ccc(Cl)c(Cl)c1)C(=O)N(Cc1ccon1)CC3 [Compound 21, (3R)-2-(3,4-Dichlorobenzoyl)-3-methyl-9-[(1,2-oxazol-3-yl)methyl]-1,2,3,4,8,9-hexahydro-pyrido[4′,3′:3,4]pyrazolo[1,5-a]pyrazin-10(7H)-one]
EC50 (HBV): 0.268 µM | CC50 at 3 days [1]: > 50 µM

C[C@@H]1Cc2nn3c(c2CN1C(=O)c1ccc(Cl)c(Cl)c1)C(=O)N([C@@H](C)c1c[nH]nn1)CC3 (single isomer, unassigned) [Compound 32, (3R)-2-(3,4-Dichlorobenzoyl)-3-methyl-9-[(1*S)-1-(1H-1,2,3-triazol-4-yl)ethyl]-1,2,3,4,8,9-hexahydropyrido[4′,3′:3,4]pyrazolo[1,5-a]pyrazin-10(7H)-one]
EC50 (HBV): 0.332 µM | CC50 at 3 days [1]: > 50 µM

C[C@@H]1Cc2nn3c(c2CN1C(=O)c1ccc(Cl)c(Cl)c1)C(=O)N(Cc1ccccc1OC(F)F)CC3 [Example C67]
EC50 (HBV): 0.07 µM | CC50 at 3 days [1]: 22.5 µM

COc1ccc(C(C)N2CCn3nc4c(c3C2=O)CN(C(=O)c2ccc(Cl)c(Cl)c2)[C@H](C)C4)cc1OC (stereo partly drawn) [Example C92]
EC50 (HBV): 0.025 µM | CC50 at 3 days [1]: 24.4 µM

C[C@@H]1Cc2nn3c(c2CN1C(=O)c1ccc(Cl)c(Cl)c1)C(=O)N(Cc1ccc(OC(F)(F)F)cc1)CC3 [Compound 14, (3R)-2-(3,4-Dichlorobenzoyl)-3-methyl-9-{[4-(trifluoromethoxy)phenyl]methyl}-1,2,3,4,8,9-hexahydropyrido[4′,3′:3,4]pyrazolo[1,5-a]pyrazin-10(7H)-one]
EC50 (HBV): 0.085 µM | CC50 at 3 days [1]: 6.96 µM

C[C@@H]1Cc2nn3c(c2CN1C(=O)c1ccc(Cl)c(Cl)c1)C(=O)N(C(C)(C)c1ccc(OC(F)F)cc1)CC3 [Example C90]
EC50 (HBV): 0.667 µM | CC50 at 3 days [1]: 21.9 µM

COc1ccc(CN2CCCn3nc4c(c3C2=O)CN(C(=O)c2ccc(Cl)c(Cl)c2)[C@H](C)C4)cc1 [Compound 40, (3R)-2-(3,4-Dichlorobenzoyl)-10-[(4-methoxyphenyl)methyl]-3-methyl-1,2,3,4,7,8,9,10-octahydro-11H-pyrido[4′,3′:3,4]pyrazolo[1,5-a][1,4]diazepin-11-one]
EC50 (HBV): 0.022 µM | CC50 at 3 days [1]: 20.9 µM

COc1ccc(CN2CCn3nc4c(c3C2=O)CN(C(=O)c2ccc(C(F)F)c(Cl)c2)CC4)cc1 [Example C62]
EC50 (HBV): 0.13 µM | CC50 at 3 days [1]: 9.31 µM

Cc1nc(C)c(CN2CCn3nc4c(c3C2=O)CN(C(=O)c2ccc(Cl)c(Cl)c2)[C@H](C)C4)s1 [Example C234]
EC50 (HBV): 0.036 µM | CC50 at 3 days [1]: > 50 µM

C[C@@H]1Cc2nn3c(c2CN1C(=O)c1ccc(Cl)c(Cl)c1)C(=O)N(Cc1cncc(Cl)c1)CC3 [Example C132]
EC50 (HBV): 0.061 µM | CC50 at 3 days [1]: > 50 µM

C[C@@H]1Cc2nn3c(c2CN1C(=O)c1ccc(Cl)c(Cl)c1)C(=O)N(Cc1noc(C2CC2)n1)CC3 [Example C143]
EC50 (HBV): 0.16 µM | CC50 at 3 days [1]: > 50 µM

Cc1nnc(CN2CCn3nc4c(c3C2=O)CN(C(=O)c2ccc(Cl)c(Cl)c2)[C@H](C)C4)n1C [Example C136]
EC50 (HBV): > 2.5 µM | CC50 at 3 days [1]: > 50 µM

C[C@@H]1Cc2nn3c(c2CN1C(=O)c1ccc(Cl)c(Cl)c1)C(=O)N(Cc1ncccn1)CC3 [Example C60]
EC50 (HBV): 0.565 µM | CC50 at 3 days [1]: > 50 µM

Cc1nnc(CN2CCn3nc4c(c3C2=O)CN(C(=O)c2ccc(Cl)c(Cl)c2)[C@H](C)C4)n1C1CC1 [Example C158]
EC50 (HBV): 2.38 µM | CC50 at 3 days [1]: > 50 µM

CC(c1cc[nH]n1)N1CCn2nc3c(c2C1=O)CN(C(=O)c1ccc(Cl)c(Cl)c1)[C@H](C)C3 (stereo partly drawn) [Example C87]
EC50 (HBV): 0.066 µM | CC50 at 3 days [1]: > 50 µM

Cc1noc(C)c1CN1CCn2nc3c(c2C1=O)CN(C(=O)c1ccc(Cl)c(Cl)c1)[C@H](C)C3 [Example C142]
EC50 (HBV): 0.268 µM | CC50 at 3 days [1]: > 50 µM

C[C@@H]1Cc2nn3c(c2CN1C(=O)c1ccc(Cl)c(Cl)c1)C(=O)N(Cc1ccnc(F)c1)CC3 [Example C210]
EC50 (HBV): 0.062 µM | CC50 at 3 days [1]: > 50 µM

C[C@@H]1Cc2nn3c(c2CN1C(=O)c1ccc(Cl)c(Cl)c1)C(=O)N([C@H](C)c1ccc(OC(F)F)cc1)CC3 [Compound 27, (3R)-2-(3,4-Dichlorobenzoyl)-9-{(1R)-1-[4-(difluoromethoxy)phenyl]ethyl}-3-methyl-1,2,3,4,8,9-hexahydropyrido[4′,3′:3,4]pyrazolo[1,5-a]pyrazin-10(7H)-one]
EC50 (HBV): 0.103 µM | CC50 at 3 days [1]: > 50 µM

CN1O[C@@H](CO)Cn2nc3c(c2C1=O)CN(C(=O)c1ccc(Cl)c(Cl)c1)CC3 (single isomer, unassigned) [Compound 45, (4*R)-10-(3,4-Dichlorobenzoyl)-4-(hydroxymethyl)-2-methyl-4,5,8,9,10,11-hexahydropyrido-[4′,3′:3,4]pyrazolo[5,1-d][1,2,5]oxadiazepin-1(2H)-one]
EC50 (HBV): 0.192 µM | CC50 at 3 days [1]: > 50 µM

C[C@@H]1Cc2nn3c(c2CN1C(=O)c1ccn2cc(C(F)(F)F)nc2c1)C(=O)N(Cc1ccccn1)CC3 [Example C104]
EC50 (HBV): 0.632 µM | CC50 at 3 days [1]: > 50 µM

Cc1cc(C(=O)N2Cc3c(nn4c3C(=O)N(Cc3ccccn3)CC4)C[C@H]2C)ccc1Cl [Example C111]
EC50 (HBV): 0.086 µM | CC50 at 3 days [1]: > 50 µM

CC(c1ccc(OC(F)(F)F)cc1)N1CCn2nc3c(c2C1=O)CN(C(=O)c1ccc(Cl)c(Cl)c1)[C@H](C)C3 (stereo partly drawn) [Example C127]
EC50 (HBV): 0.133 µM | CC50 at 3 days [1]: 15.7 µM

CC(c1ccccc1F)N1CCn2nc3c(c2C1=O)CN(C(=O)c1ccc(Cl)c(Cl)c1)[C@H](C)C3 (stereo partly drawn) [Example C244]
EC50 (HBV): 0.048 µM | CC50 at 3 days [1]: 24.5 µM
